Measurements as given in patent US5593969A, “Lipid-A analogs: monosaccharide and dissaccharide compounds for inhibiting binding of lipid A receptors to lipid A receptors” (IGEN Incorporated, priority 1993, dated 1997).

Key:
Pseudomonas aeruginosa = type: in vivo, Pseudomonas aeruginosa in ICR mice; details: Lipid-A at 1 μg/mouse
[1] = Serum antibody titre on Lipid-A by ELISA after liposome immunization; type: in vivo, Balb/c mice; details: Lipid-A liposomes with HEL[105-120], HEL primed
Description: i) A stock solution of lipids for the formation of liposomes was prepared by mixing 10 mM solutions of dimyristoyl phosphatidyl choline, dicetyl phosphate and cholesterol (all from Sigma Chemicals) in the ratio 1.0:0.11:0.75. This stock was aliquotted into 1.0 ml volumes and dried under argon and stored at -20° C. until used.
ii) 500 μg of immunogen 3D dissolved in CHCl3 was dried into a 50 ml round bottomed flask on a rotary evaporator. One aliquot of the lipid stock was dissolved in 1 ml of CHCl3 :MeOH (9:1) and added to the dried immunogen 3D. The dissolved lipids were thoroughly mixed then dried together on a rotary evaporator under argon until all solvent had been removed and then for an additional 15 mins. The flask was then placed in a high vacuum dessicator for 2 hrs. 1.0 ml of swelling solution, approximately 0.9% NaCl, was added to the dry lipid film with 0.5 g of glass beads and mixed vigorously by swirling and vortexing. Liposomes were allowed to swell at room temperature overnight. […]
Mice which were primed with HEL and immunized with Immunogen 3D("Imm-3D") and Lipid-A incorporated separately into liposomes along with the peptide HEL[105-120] […] Seven days after the final immunization, serum samples were taken and the titres of IgG and IgM anti-Lipid-A antibodies determined separately by ELISA. […]

tumor cells = assay: Antitumor activity (Meth A fibrosarcoma, melanoma or Pro b cells); type: in vivo; details: 250, 100 or 10 μg/mouse or up to 10 μg/kg, intravenously or intratumorly

In the case of Lipid-A, the “protective activity against gram-negative bacteria” value (Pseudomonas aeruginosa) is reported as “exhibits protective activity”, the “IgG antibody responses to the eliciting antigen” value [1] is reported as “enhanced IgG antibody responses” and the tumor growth (tumor cells) is reported as “retarded or prevented”.
